Source: US20240247253A1, “PRODUCTION METHOD OF POLYPEPTIDE, TAG, EXPRESSION VECTOR, EVALUATION METHOD OF POLYPEPTIDE, PRODUCTION METHOD OF NUCLEIC ACID DISPLAY LIBRARY, AND SCREENING METHOD” (FUJIFILM Corporation, priority 2021, published 2024)

Assays:
[1] = tested on: cell-free peptide synthesis system derived from Escherichia coli; assay: Cell-free biosynthesis of the integrin binding peptide fusion protein with N-terminal tag, 1 hour reaction, amount measured by ELISA; assay type: biochemical; conditions: relative value, control example without tag = 1; fusion protein SEQ ID NO: 5; 37° C. for 1 hour; average of two measurements
Text: In the cell-free peptide synthesis system derived from Escherichia coli, the effect of the VKKX tag on the biosynthesis amount of the polypeptide was examined. As a polypeptide to be biosynthesized, an integrin binding peptide containing cysteine and chloroacetyl lysine was selected. In this polypeptide, a thiol group of cysteine and a chloroacetyl group of chloroacetyl lysine spontaneously form a thioether bond to become a cyclic polypeptide.
A fusion protein in which an integrin binding peptide, a Myc tag, and a HiBiT tag were linked in this order was designed. As a spacer, Gly-Gly-Ser was inserted between the integrin binding peptide and the Myc tag and between the Myc tag and the HiBiT tag. The amino acid sequence of this fusion protein is SEQ ID NO: 5, and the base sequence encoding this fusion protein is SEQ ID NO: 6. In SEQ ID NO: 5, the integrin binding peptide ranges to the amino acid at the twelfth position (that is, alanine) from an N-terminal, and the amino acid at eleventh position from the N-terminal is chloroacetyl lysine. The triplet TAG at the positions 31 to 33 from the 5′ terminal of the base sequence set forth in SEQ ID NO: 6 was assigned to the codon of chloroacetyl lysine. The end of the base sequence set forth in SEQ ID NO: 6 is the stop codon TAA.
A base sequence encoding a tagged fusion protein in which methionine, a VKKX tag (any of SEQ ID nOs: 7 to 52), and a fusion protein (SEQ ID NO: 5) were linked in this order was designed. In this base sequence, a base sequence (any of SEQ ID nOs: 53 to 98) encoding a VKKX tag is arranged immediately after the start codon ATG, and a base sequence encoding a fusion protein immediately after the base sequence (SEQ ID NO: 6) encoding the VKKX tag is arranged.
As a control example for evaluating the effect of the VKKX tag, a base sequence in which a base sequence (SEQ ID NO: 6) encoding a fusion protein arranged immediately after the start codon ATG was designed.
In order to translate chloroacetyl lysine which is an unnatural amino acid, a tRNA in which the anticodon was CUA and paired with the UAG codon of mRNA was prepared. This tRNA was aminoacylated with an N-chloroacetyl lysine hosphoro 2′ deoxyribocytidylylriboadenosine (pdCpA) ester. This aminoacyl tRNA is referred to as an Aminoacyl tRNA (1).
(§1) The cell-free biosynthesis of the polypeptide was carried out in a translation solution containing a template DNA, PUREfrex 2.0 (GeneFrontier, PF201-0.25-5), and Aminoacyl tRNA (1). 1.25 μL (62.5 ng) of the template DNA prepared to 50 ng/μL, 2.5 μL of PUREfrex 2.0 Solution I, 0.25 μL of Solution II, 0.5 μL of Solution III, and 0.5 μL of Aminoacyl tRNA (1) were mixed and mixture was subjected to a reaction at 37° ° C. for 1 hour.
The amount of the biosynthesized polypeptide was measured by ELISA. 50 ng of Recombinant Human Integrin αVβ3 (R&D systems, 3050-AV-050) was immobilized in each well of a 96-well plate and blocked with Blocker Casein in PBS (Thermo, 37528), and then a cell-free biosynthesis solution diluted with Can Get Signal Immunoreaction Enhancer Solution I (TOYOBO, NKB-101) containing 5 mmol/L MgCl2 was added thereto, and the mixture was subjected to a reaction at room temperature for 3 hours. After washing with 5 mmol/L MgCl2/0.05% Tween 20-containing phosphate buffered saline (PBS), an anti-Myc antibody (Cell Signaling, 14038S) diluted with Can Get Signal Immunoreaction Enhancer Solution II (TOYOBO, NKB-101) was added thereto, and the mixture was subjected to a reaction at room temperature for 2 hours. After washing with PBS containing 5 mmol/L MgCl2/0.05% Tween 20, Super Signal ELISA Femto Substrate (Thermo, 37075) was added thereto, and the luminescence was measured. The amount of the fusion protein in the cell-free biosynthesis solution was calculated based on a calibration curve created from the fusion protein having a known concentration. The luminescence measurement was performed twice, and the average value of the amounts of the fusion protein was calculated. […]

[2] = tested on: cell-free peptide synthesis system derived from Escherichia coli; assay: Cell-free biosynthesis of the integrin binding peptide fusion protein with tag, reaction time 10 minutes, ELISA; assay type: biochemical; conditions: relative value, control without tag = 1; reaction time 10 minutes; fusion protein SEQ ID NO: 5; SKIK encoded by SEQ ID NO: 110
Protocol: as §1
The amount of the biosynthesized polypeptide was measured by ELISA. 50 ng of Recombinant Human Integrin αVβ3 (R&D systems, 3050-AV-050) was immobilized in each well of a 96-well plate and blocked with Blocker Casein in PBS (Thermo, 37528), and then a cell-free biosynthesis solution diluted with Can Get Signal Immunoreaction Enhancer Solution I (TOYOBO, NKB-101) containing 5 mmol/L MgCl2 was added thereto, and the mixture was subjected to a reaction at room temperature for 3 hours. After washing with 5 mmol/L MgCl2/0.05% Tween 20-containing phosphate buffered saline (PBS), an anti-Myc antibody (Cell Signaling, 14038S) diluted with Can Get Signal Immunoreaction Enhancer Solution II (TOYOBO, NKB-101) was added thereto, and the mixture was subjected to a reaction at room temperature for 2 hours. After washing with PBS containing 5 mmol/L MgCl2/0.05% Tween 20, Super Signal ELISA Femto Substrate (Thermo, 37075) was added thereto, and the luminescence was measured. The amount of the fusion protein in the cell-free biosynthesis solution was calculated based on a calibration curve created from the fusion protein having a known concentration. The luminescence measurement was performed twice, and the average value of the amounts of the fusion protein was calculated. Table 2-1 and Table 2-2 show relative values of the biosynthesis amounts of respective fusion proteins in a case where the amount of the fusion protein of the control example was set to the reference value 1.
As a comparative control, a SKIK tag represented by SEQ ID NO: 107 was selected. The polypeptide to be biosynthesized is the fusion protein containing the integrin binding peptide, as in Example 1.
Using a template DNA including DNA sequences (SEQ ID NOs: 73 to 98) encoding VKKX tags represented by SEQ ID NOs: 27 to 52 produced in Example 1, and a DNA sequence (SEQ ID NO: 110) encoding a SKIK tag represented by SEQ ID NO: 107 produced in Example 2, the biosynthesis reaction was performed in the same manner as in Example 1 by setting the reaction time to 10 minutes. In the same manner in Example 1, the fusion protein was expressed by the cell-free peptide synthesis system and quantified by ELISA. The measurement was performed twice, and the average value of the amounts of the fusion protein was calculated. […] As control example used in Example 1, the control example of the reference value 1 has a form in which the base sequence (SEQ ID NO: 6) encoding the fusion protein is arranged immediately after the start codon ATG.

| Substance | Biosynthesis amount of fusion protein [1] | Biosynthesis amount of fusion protein [2] |
| --- | --- | --- |
| SEQ ID NO: 7: VKKX tag, amino acid sequence VKKI (VKKX Tag) | 4.40 |  |
| SEQ ID NO: 8: VKKX tag, amino acid sequence VKKK (VKKX Tag) | 6.15 |  |
| SEQ ID NO: 9: VKKX tag, amino acid sequence VKKT (VKKX Tag) | 5.66 |  |
| SEQ ID NO: 10: VKKX tag, amino acid sequence VKKR (VKKX Tag) | 5.75 |  |
| SEQ ID NO: 11: VKKX tag, amino acid sequence VKKS (VKKX Tag) | 6.05 |  |
| SEQ ID NO: 12: VKKX tag, amino acid sequence VKKH (VKKX Tag) | 5.82 |  |
| SEQ ID NO: 13: VKKX tag, amino acid sequence VKKM (VKKX Tag) | 1.94 |  |
| SEQ ID NO: 14: VKKX tag, amino acid sequence VKKP (VKKX Tag) | 2.23 |  |
| SEQ ID NO: 15: VKKX tag, amino acid sequence VKKG (VKKX Tag) | 2.39 |  |
| SEQ ID NO: 16: VKKX tag, amino acid sequence VKKL (VKKX Tag) | 2.71 |  |
| SEQ ID NO: 17: VKKX tag, amino acid sequence VKKV (VKKX Tag) | 2.90 |  |
| SEQ ID NO: 18: VKKX tag, amino acid sequence VKKE (VKKX Tag) | 2.94 |  |
| SEQ ID NO: 19: VKKX tag, amino acid sequence VKKA (VKKX Tag) | 3.01 |  |
| SEQ ID NO: 20: VKKX tag, amino acid sequence VKKD (VKKX Tag) | 3.05 |  |
| SEQ ID NO: 21: VKKX tag, amino acid sequence VKKC (VKKX Tag) | 3.14 |  |
| SEQ ID NO: 22: VKKX tag, amino acid sequence VKKN (VKKX Tag) | 3.17 |  |
| SEQ ID NO: 23: VKKX tag, amino acid sequence VKKY (VKKX Tag) | 3.30 |  |
| SEQ ID NO: 24: VKKX tag, amino acid sequence VKKQ (VKKX Tag) | 3.52 |  |
| SEQ ID NO: 25: VKKX tag, amino acid sequence VKKW (VKKX Tag) | 3.52 |  |

| Substance | Biosynthesis amount of fusion protein [1] | Biosynthesis amount of fusion protein [2] |
| --- | --- | --- |
| SEQ ID NO: 26: VKKX tag, amino acid sequence VKKF (VKKX Tag) | 3.69 |  |
| SEQ ID NO: 28: VKKX tag, amino acid sequence VKKTKTT (VKKX Tag) | 6.28 | 16.65 |
| SEQ ID NO: 29: VKKX tag, amino acid sequence VKKTKTD (VKKX Tag) | 6.09 | 15.90 |
| SEQ ID NO: 30: VKKX tag, amino acid sequence VKKTKTKK (VKKX Tag) | 9.01 | 24.42 |
| SEQ ID NO: 31: VKKX tag, amino acid sequence VKKTKTKT (VKKX Tag) | 9.08 | 15.48 |
| SEQ ID NO: 32: VKKX tag, amino acid sequence VKKTKTKD (VKKX Tag) | 8.04 | 20.56 |
| SEQ ID NO: 33: VKKX tag, amino acid sequence VKKTKTTK (VKKX Tag) | 6.54 | 8.17 |
| SEQ ID NO: 34: VKKX tag, amino acid sequence VKKTKTTT (VKKX Tag) | 6.69 | 8.59 |
| SEQ ID NO: 35: VKKX tag, amino acid sequence VKKTKTDD (VKKX Tag) | 5.75 | 8.49 |
| SEQ ID NO: 36: VKKX tag, amino acid sequence VKKTKTKKT (VKKX Tag) | 10.50 | 13.13 |
| SEQ ID NO: 37: VKKX tag, amino acid sequence VKKTKTKKD (VKKX Tag) | 11.45 | 19.84 |
| SEQ ID NO: 38: VKKX tag, amino acid sequence VKKTKTKTK (VKKX Tag) | 8.42 | 16.95 |
| SEQ ID NO: 39: VKKX tag, amino acid sequence VKKTKTKTT (VKKX Tag) | 7.22 | 7.57 |
| SEQ ID NO: 40: VKKX tag, amino acid sequence VKKTKTKDK (VKKX Tag) | 8.49 | 10.77 |
| SEQ ID NO: 41: VKKX tag, amino acid sequence VKKTKTKDT (VKKX Tag) | 6.27 | 28.80 |
| SEQ ID NO: 42: VKKX tag, amino acid sequence VKKTKTKDD (VKKX Tag) | 5.35 | 14.95 |
| SEQ ID NO: 43: VKKX tag, amino acid sequence VKKTKTTKK (VKKX Tag) | 9.45 | 23.35 |
| SEQ ID NO: 44: VKKX tag, amino acid sequence VKKTKTTKT (VKKX Tag) | 7.83 | 7.18 |
